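Interpolation was linear, between the two tested concentrations surrounding the appropriate level; five concentrations were tested over 48 hours in 96-well plates. TGI: concentration producing complete growth inhibition.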
Experiments:
Assay in all cases: NCI tumour cell line growth inhibition, 48 h
[1] = tested on: CCRF-CEM leukemia
[2] = tested on: SK-MEL-5 melanoma
[3] = tested on: HCC-2998 colon
[4] = tested on: HT29 colon
[5] = tested on: U251 CNS
[6] = tested on: SNB-78 CNS
[7] = tested on: SF-268 CNS
[8] = tested on: UACC-257 melanoma
[9] = tested on: HOP-92 NSCLC
[10] = tested on: RXF 393 renal
[11] = tested on: HOP-18 NSCLC
[12] = tested on: RPMI-8226 leukemia
[13] = tested on: KM12 colon
[14] = tested on: NCI-H226 lung
[15] = tested on: SNB-19 CNS
[16] = tested on: HCT-116 colon
[17] = tested on: XF 498 CNS
[18] = tested on: OVCAR-4 ovarian
[19] = tested on: ACHN renal
[20] = tested on: MOLT-4 leukemia
[21] = tested on: COLO 205 colon
[22] = tested on: LOX IMVI melanoma
[23] = tested on: UACC-62 melanoma
[24] = tested on: HL-60(TB) leukemia
[25] = tested on: SR leukemia
[26] = tested on: M19-MEL melanoma
[27] = tested on: IGROV1 ovarian
[28] = tested on: LXFL 529 NSCLC
[29] = tested on: DLD-1 colon
[30] = tested on: SK-MEL-28 melanoma
[31] = tested on: KM20L2 colon
[32] = tested on: TK-10 renal
[33] = tested on: NCI-H23 lung
[34] = tested on: OVCAR-3 ovarian
[35] = tested on: SK-OV-3 ovarian
[36] = tested on: SK-MEL-2 melanoma
[37] = tested on: OVCAR-8 ovarian
[38] = tested on: SF-295 CNS
[39] = tested on: NCI-H522 lung
[40] = tested on: SF-539 CNS
[41] = tested on: EKVX NSCLC
[42] = tested on: DMS 273 small cell lung
[43] = tested on: MALME-3M melanoma
[44] = tested on: 786-0 renal
[45] = tested on: M14 melanoma
[46] = tested on: HCT-15 colon
[47] = tested on: OVCAR-5 ovarian
[48] = tested on: K-562 leukemia
[49] = tested on: SNB-75 CNS
[50] = tested on: NCI-H460 lung
[51] = tested on: SW-620 colon
[52] = tested on: SN12C renal
[53] = tested on: A549 NSCLC
[54] = tested on: UO-31 renal
[55] = tested on: A498 renal
[56] = tested on: HOP-62 NSCLC
[57] = tested on: CAKI-1 renal
[58] = tested on: DMS 114 small cell lung

## NC1=NS(=O)(=O)Nc2nc(-c3ccccc3)c(-c3ccccc3)nc21
[1]
  TGI: > 100 µM
[2]
  TGI: > 100 µM
[3]
  TGI: > 100 µM
[4]
  TGI: > 100 µM
[5]
  TGI: > 100 µM
[6]
  TGI: > 100 µM
[7]
  TGI: > 100 µM
[8]
  TGI: > 100 µM
[9]
  TGI: > 100 µM
[10]
  TGI: > 100 µM
[11]
  TGI: > 100 µM
[12]
  TGI: > 100 µM
[13]
  TGI: > 100 µM
[14]
  TGI: > 100 µM
[15]
  TGI: > 100 µM
[16]
  TGI: > 100 µM
[17]
  TGI: > 100 µM
[18]
  TGI: > 100 µM
[19]
  TGI: > 100 µM
[20]
  TGI: > 100 µM
[21]
  TGI: > 100 µM
[22]
  TGI: > 100 µM
[23]
  TGI: > 100 µM
[24]
  TGI: > 100 µM
[25]
  TGI: > 100 µM
[26]
  TGI: > 100 µM
[27]
  TGI: > 100 µM
[28]
  TGI: > 100 µM
[29]
  TGI: > 100 µM
[30]
  TGI: > 100 µM
[31]
  TGI: > 100 µM
[32]
  TGI: > 100 µM
[33]
  TGI: > 100 µM
[34]
  TGI: > 100 µM
[35]
  TGI: > 100 µM
[36]
  TGI: > 100 µM
[37]
  TGI: > 100 µM
[38]
  TGI: > 100 µM
[39]
  TGI: > 100 µM
[40]
  TGI: > 100 µM
[41]
  TGI: > 100 µM
[42]
  TGI: > 100 µM
[43]
  TGI: > 100 µM
[44]
  TGI: > 100 µM
[45]
  TGI: > 100 µM
[46]
  TGI: > 100 µM
[47]
  TGI: > 100 µM
[48]
  TGI: > 100 µM
[49]
  TGI: > 100 µM
[50]
  TGI: > 100 µM
[51]
  TGI: > 100 µM
[52]
  TGI: > 100 µM
[53]
  TGI: > 100 µM
[54]
  TGI: > 100 µM

## O=C(Nc1nc2ncn(CCNCCn3cnc4nc(NC(=O)c5ccccc5)[nH]c(=O)c43)c2c(=O)[nH]1)c1ccccc1
[1]
  TGI: > 100 µM
[2]
  TGI: > 100 µM
[3]
  TGI: > 100 µM
[4]
  TGI: > 100 µM
[5]
  TGI: > 100 µM
[6]
  TGI: > 100 µM
[7]
  TGI: > 100 µM
[8]
  TGI: > 100 µM
[9]
  TGI: > 100 µM
[10]
  TGI: > 100 µM
[11]
  TGI: > 100 µM
[12]
  TGI: > 100 µM
[13]
  TGI: > 100 µM
[14]
  TGI: > 100 µM
[15]
  TGI: > 100 µM
[16]
  TGI: > 100 µM
[17]
  TGI: > 100 µM
[18]
  TGI: > 100 µM
[19]
  TGI: > 100 µM
[20]
  TGI: > 100 µM
[21]
  TGI: > 100 µM
[22]
  TGI: > 100 µM
[23]
  TGI: > 100 µM
[24]
  TGI: > 100 µM
[26]
  TGI: > 100 µM
[27]
  TGI: > 100 µM
[28]
  TGI: > 100 µM
[29]
  TGI: > 100 µM
[30]
  TGI: > 100 µM
[31]
  TGI: > 100 µM
[32]
  TGI: > 100 µM
[33]
  TGI: > 100 µM
[34]
  TGI: > 100 µM
[35]
  TGI: > 100 µM
[36]
  TGI: > 100 µM
[55]
  TGI: > 100 µM
[37]
  TGI: > 100 µM
[38]
  TGI: > 100 µM
[39]
  TGI: > 100 µM
[56]
  TGI: > 100 µM
[40]
  TGI: > 100 µM
[41]
  TGI: > 100 µM
[42]
  TGI: > 100 µM
[43]
  TGI: > 100 µM
[44]
  TGI: > 100 µM
[45]
  TGI: > 100 µM
[46]
  TGI: > 100 µM
[47]
  TGI: > 100 µM
[48]
  TGI: > 100 µM
[49]
  TGI: > 100 µM
[50]
  TGI: > 100 µM
[51]
  TGI: > 100 µM
[52]
  TGI: > 100 µM
[53]
  TGI: > 100 µM
[57]
  TGI: > 100 µM
[54]
  TGI: > 100 µM

## CCCOP1(=O)C=CC(Cl)=C(C)C1 (stereo not drawn)
[1]
  TGI: 19.7 µM
[2]
  TGI: > 100 µM
[3]
  TGI: > 100 µM
[4]
  TGI: > 100 µM
[5]
  TGI: > 100 µM
[6]
  TGI: > 100 µM
[7]
  TGI: > 100 µM
[8]
  TGI: 64.3 µM
[9]
  TGI: > 100 µM
[10]
  TGI: 33.4 µM
[11]
  TGI: > 100 µM
[12]
  TGI: 60.1 µM
[13]
  TGI: 50.4 µM
[15]
  TGI: > 100 µM
[16]
  TGI: 33.5 µM
[17]
  TGI: > 93.1 µM
[18]
  TGI: > 100 µM
[19]
  TGI: > 66.5 µM
[20]
  TGI: 22.2 µM
[21]
  TGI: 33.9 µM
[22]
  TGI: > 100 µM
[23]
  TGI: 52.2 µM
[27]
  TGI: > 100 µM
[28]
  TGI: > 61.1 µM
[29]
  TGI: 47.9 µM
[30]
  TGI: 42.8 µM
[31]
  TGI: > 100 µM
[32]
  TGI: > 100 µM
[33]
  TGI: > 100 µM
[34]
  TGI: > 75.2 µM
[35]
  TGI: > 100 µM
[36]
  TGI: > 89.5 µM
[55]
  TGI: > 100 µM
[37]
  TGI: 47.5 µM
[38]
  TGI: > 100 µM
[39]
  TGI: 31.6 µM
[56]
  TGI: > 100 µM
[40]
  TGI: > 68.2 µM
[41]
  TGI: > 88 µM
[43]
  TGI: 52.1 µM
[44]
  TGI: 76 µM
[45]
  TGI: > 61.3 µM
[46]
  TGI: 39.7 µM
[47]
  TGI: > 100 µM
[58]
  TGI: 89.3 µM
[48]
  TGI: > 31.6 µM
[49]
  TGI: > 100 µM
[50]
  TGI: > 100 µM
[51]
  TGI: 42.2 µM
[52]
  TGI: > 100 µM
[53]
  TGI: > 100 µM
[57]
  TGI: > 95.9 µM
[54]
  TGI: > 100 µM
